Source: PubChem BioAssay AID192 (DTP/NCI, 2004)
Inconclusive results and toxic doses are left out. Rule for the calls: active = survival T/C of 150% or more; inactive = T/C below 125% in these data.

System: BDF1 mice, B16 melanoma ip, median survival T/C
Assay: NCI In Vivo Anticancer Drug Screen. Data for tumor model B16 Melanoma (intraperitoneal) in B6D2F1 (BDF1) mice
Settings: endpoint: median survival time, higher = longer survival
Outline: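 Vehicle-treated animals serve as the reference (C); treated animals (T) are scored for survival or tumor size after tumor transplantation.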

[1] = dose: 100.0 mg/kg/injection, schedule: Q01DX009 (ip), vehicle: Klucel (hydroxypropylcellulose) (HPC)
[2] = dose: 200.0 mg/kg/injection, schedule: Q01DX009 (ip), vehicle: Klucel (hydroxypropylcellulose) (HPC)
[3] = dose: 100.0 mg/kg/injection, schedule: Q04DX003 (ip), vehicle: gum acacia
[4] = dose: 25.0 mg/kg/injection, schedule: Q01DX009 (ip), vehicle: saline
[5] = dose: 50.0 mg/kg/injection, schedule: Q01DX009 (ip), vehicle: saline
[6] = dose: 100.0 mg/kg/injection, schedule: Q01DX009 (ip), vehicle: saline

Measured: T/C

CC(C)[C@]12O[C@H]1[C@@H]1O[C@]13[C@]1(O[C@H]1C[C@H]1C4=C(C(=O)OC4)[C@@H](O)C[C@@]13C)[C@@H]2O
inactive: dose: 12.5 micrograms/kg/injection, schedule: Q01DX009 (ip), vehicle: saline + alcohol 112 % of control | dose: 25.0 micrograms/kg/injection, schedule: Q01DX009 (ip), vehicle: saline + alcohol 110 % of control | dose: 50.0 micrograms/kg/injection, schedule: Q01DX009 (ip), vehicle: saline + alcohol 110 % of control | dose: 63.0 micrograms/kg/injection, schedule: Q01DX009 (ip), vehicle: saline + alcohol 102 % of control | dose: 100.0 micrograms/kg/injection, schedule: Q01DX009 (ip), vehicle: saline + alcohol 122 % of control | dose: 125.0 micrograms/kg/injection, schedule: Q01DX009 (ip), vehicle: saline + alcohol 111 % of control | dose: 250.0 micrograms/kg/injection, schedule: Q01DX009 (ip), vehicle: saline + alcohol 107 % of control

Cc1ccc(NC(=O)c2ccccc2C(=O)O)cc1Cl
inactive: [1] 94 % of control | [2] 94 % of control

O=C(O)CSC(CC(=O)O)C(=O)O (centres undefined)
inactive: dose: 200.0 mg/kg/injection, schedule: Q01DX009 (ip), vehicle: saline 106 % of control | dose: 400.0 mg/kg/injection, schedule: Q01DX009 (ip), vehicle: saline 106 % of control

C(=C\c1cccnc1)/c1ccncc1
inactive: dose: 66.0 mg/kg/injection, schedule: Q01DX009 (ip), vehicle: saline with Tween-80 96 % of control | dose: 100.0 mg/kg/injection, schedule: Q01DX009 (ip), vehicle: saline with Tween-80 93 % of control

O=[N+]([O-])c1cc(Br)cc(Br)c1S(=O)(=O)O
inactive: dose: 100.0 mg/kg/injection, schedule: Q04DX003 (ip), vehicle: saline 100 % of control | dose: 200.0 mg/kg/injection, schedule: Q04DX003 (ip), vehicle: saline 108 % of control | dose: 400.0 mg/kg/injection, schedule: Q04DX003 (ip), vehicle: saline 104 % of control

O=C(O)Cc1c(O)ccc2ccccc12
inactive: dose: 25.0 mg/kg/injection, schedule: Q04DX003 (ip), vehicle: gum acacia 100 % of control | dose: 50.0 mg/kg/injection, schedule: Q04DX003 (ip), vehicle: gum acacia 100 % of control | [3] 97 % of control

CC(=O)OCC1OC(n2ccc(N)nc2=O)C(OC(C)=O)C1OC(C)=O (centres undefined)
inactive: dose: 12.5 mg/kg/injection, schedule: Q01DX009 (ip), vehicle: saline 105 % of control | [4] 105 % of control | [5] 105 % of control | [6] 109 % of control

O=C1OC(=O)C2C3C=CC(C3=C(c3ccccc3)c3ccccc3)C12 (centres undefined)
inactive: dose: 0.78 mg/kg/injection, schedule: Q04DX009 (ip), vehicle: Klucel (hydroxypropylcellulose) (HPC) 115 % of control | dose: 1.56 mg/kg/injection, schedule: Q04DX009 (ip), vehicle: Klucel (hydroxypropylcellulose) (HPC) 121 % of control | dose: 3.13 mg/kg/injection, schedule: Q04DX009 (ip), vehicle: Klucel (hydroxypropylcellulose) (HPC) 106 % of control

CC12C=CC(CC1)C2OC(=O)c1ccccc1C(=O)O (centres undefined)
inactive: dose: 12.5 mg/kg/injection, schedule: Q01DX009 (ip), vehicle: Klucel (hydroxypropylcellulose) (HPC) 108 % of control | dose: 50.0 mg/kg/injection, schedule: Q01DX009 (ip), vehicle: Klucel (hydroxypropylcellulose) (HPC) 94 % of control | [1] 100 % of control | [2] 94 % of control

C/C(=N/NC(=O)c1ccccc1)c1ccccc1O
inactive: [3] 93 % of control | dose: 200.0 mg/kg/injection, schedule: Q04DX003 (ip), vehicle: gum acacia 95 % of control | dose: 400.0 mg/kg/injection, schedule: Q04DX003 (ip), vehicle: gum acacia 93 % of control

COc1ccc(CCNC(=S)NCCc2ccc(OC)c(OC)c2)cc1OC
inactive: [1] 86 % of control | [2] 92 % of control | dose: 400.0 mg/kg/injection, schedule: Q01DX009 (ip), vehicle: Klucel (hydroxypropylcellulose) (HPC) 115 % of control

O=C1CC2(CCCCC2)CO1
inactive: dose: 0.09 mg/kg/injection, schedule: Q01DX009 (ip), vehicle: saline 102 % of control | dose: 0.19 mg/kg/injection, schedule: Q01DX009 (ip), vehicle: saline 95 % of control | dose: 0.39 mg/kg/injection, schedule: Q01DX009 (ip), vehicle: saline 91 % of control | dose: 0.78 mg/kg/injection, schedule: Q01DX009 (ip), vehicle: saline 95 % of control | dose: 1.56 mg/kg/injection, schedule: Q01DX009 (ip), vehicle: saline 95 % of control

C=CCc1ccccc1OC
inactive: [4] 116 % of control | [5] 109 % of control | [6] 106 % of control
